Assay results: BindingDB's records for doi:10.1021/jm00010a025 (Merck Sharp & Dohme Research Laboratories, 1995)

Assay: Binding activity against 5-hydroxytryptamine 2C receptor from pig cortex membrane using [3H]mesulergine as radioligand.

**Q.** Which IC50 does the source give for `CN(C)CCc1c[nH]c2ccc(Cn3ccnc3)cc12` here?
**A.** Its IC50 is 3.98 µM.

**Q.** With `CN(C)CCc1c[nH]c2ccc(Cn3cnnn3)cc12` as the compound, how does the IC50 read?
**A.** The IC50 was 2 µM.

**Q.** With `CN(C)CCc1c[nH]c2ccc(Cn3ncnn3)cc12` as the compound, how does the IC50 read?
**A.** Its IC50 is 1 µM.

**Q.** With `CN(C)CCc1c[nH]c2ccc(Cc3ncnn3C)cc12` as the compound, how does the IC50 read?
**A.** The IC50 was > 10 µM.

**Q.** For `CCn1nnnc1Cc1ccc2[nH]cc(CCN(C)C)c2c1`, which IC50 is on record?
**A.** The IC50 was > 10 µM.

**Q.** For `CN(C)CCc1c[nH]c2ccc(Cc3nnn[nH]3)cc12`, which IC50 is on record?
**A.** The IC50 was > 10 µM.

**Q.** With `Cc1nccn1Cc1ccc2[nH]cc(CCN(C)C)c2c1` as the compound, how does the IC50 read?
**A.** Its IC50 is 3.16 µM.

Assay: Binding activity against 5-hydroxytryptamine 3 receptor from rat cortex homogenate using [3H]-Q-ICS 205-930 as radioligand.

**Q.** For `CN(C)CCc1c[nH]c2ccc(Cn3ccnc3)cc12`, which IC50 is on record?
**A.** Its IC50 is 31.6 nM.

**Q.** With `CN(C)CCc1c[nH]c2ccc(Cc3ncnn3C)cc12` as the compound, how does the IC50 read?
**A.** The IC50 was 100 nM.

Assay: as above
Remark: another data set of the same source

**Q.** With `CN(C)CCc1c[nH]c2ccc(Cc3nnnn3C)cc12` as the compound, how does the IC50 read?
**A.** Its IC50 is 25.1 nM.

**Q.** For `CN(C)CCc1c[nH]c2ccc(Cn3cnnn3)cc12`, which IC50 is on record?
**A.** The IC50 was 39.8 nM.

**Q.** For `CN(C)CCc1c[nH]c2ccc(Cn3ncnn3)cc12`, which IC50 is on record?
**A.** Its IC50 is 39.8 nM.

**Q.** With `CN(C)CCc1c[nH]c2ccc(Cc3nnn(C)n3)cc12` as the compound, how does the IC50 read?
**A.** The IC50 was 79.4 nM.

**Q.** With `Cc1nccn1-c1ccc2[nH]cc(CCN(C)C)c2c1` as the compound, how does the IC50 read?
**A.** Its IC50 is 7.94 nM.

**Q.** For `CCn1nnnc1Cc1ccc2[nH]cc(CCN(C)C)c2c1`, which IC50 is on record?
**A.** The IC50 was 25.1 nM.

**Q.** Which IC50 does the source give for `CCn1nnc(Cc2ccc3[nH]cc(CCN(C)C)c3c2)n1` here?
**A.** Its IC50 is 126 nM.

**Q.** For `CN(C)CCc1c[nH]c2ccc(Cc3nncn3C)cc12`, which IC50 is on record?
**A.** Its IC50 is 25.1 nM.

**Q.** With `CN(C)CCc1c[nH]c2ccc(Cc3nnn[nH]3)cc12` as the compound, how does the IC50 read?
**A.** Its IC50 is 3980 nM.

**Q.** For `Cc1nccn1Cc1ccc2[nH]cc(CCN(C)C)c2c1`, which IC50 is on record?
**A.** Its IC50 is 63.1 nM.

Assay: Binding activity against 5-hydroxytryptamine 3 receptor from rat cortex homogenate using [3H]-Q-ICS 205-930 as radioligand; NA Not Available

**Q.** For `CN(C)CCc1c[nH]c2ccc(Cn3ccnn3)cc12`, which IC50 is on record?
**A.** Its IC50 is 50.1 nM.
